Experimental data: patent US12364679B2, “Esters for treatment of ocular inflammatory conditions” (Johnson & Johnson Vision Care, Inc., priority 2011, dated 2025)

Experiments:
[1] = test system: transepithelial permeability in vitro model; test: Transepithelial permeability in vitro model (TEP test), fluorescein leakage; assay type: cell-based; settings: 0.2%, relative to vehicle/controls
Description: The compositions of Examples 1A and 1B and Comparative Example 2A were tested in vitro as follows. A transepithelial permeability in vitro model (TEP test) was used to assess fluorescein leakage (or increased transepithelial permeability) with the free acid in comparison with the ester form of the alpha linolenic acid.

[2] = Uptake by senofilcon contact lenses from IPA solution, gas chromatography; assay type: physicochemical
Description: ALA-EE was dissolved in isopropanol (IPA) at the concentration of 0.05 or 0.5%. Silicone hydrogel contact lenses (senofilcon, commercially available as ACUVUE® OASYS® with […]® Plus lenses) were then allowed to soak in the ALA-EE-containing IPA for up to 1 hour at room temperature, followed by soaking in ALA-EE containing IPA/packing solution (70% IPA/30% packing solution) for up to 1 hour, rinsing in packing solution, and packaging of lenses in the packing solution. ALA-EE uptake by the contact lenses was quantified by gas chromatography.
A comparative silicone hydrogel contact lens that incorporated alpha linolenic acid (ALA), rather than the ester, was prepared following the same protocol as Example 6.

[3] = test system: "contact lens induced dry eye" subjects; test: Comfort upon instillation to the eye (non-dispensing clinical studies); settings: human, in vivo
Description: Preliminary non-dispensing clinical studies were conducted to further assess the use of omega-three fatty acid compositions. A 0.05 wt. % concentration ester version of an omega-three fatty acid was instilled on three “contact lens induced dry eye” subjects (each with at least one sign and one symptom of contact lens induced dry eye) without any acute ocular discomfort or physiological findings. Similarly, a 0.2 wt. % concentration ester version of the omega-three fatty acid was instilled on four “contact lens induced dry eye” subjects without any acute ocular discomfort or physiological findings.

[4] = Uptake by narafilcon B contact lenses from propylene glycol solution, gas chromatography; assay type: physicochemical; settings: for ALA-EE uptake: narafilcon B
Description: The alpha linolenic acid ethyl ester (ALA-EE) was dissolved in propylene glycol (PG) at concentrations of 0.05 and 0.5%, and silicon hydrogel lenses (Narafilcon B lenses (ACUVUE® TrueEye®)) were hydrated or soaked in the ALA-EE-containing propylene glycol solution for one hour at room temperature, followed by rinsing in DI water and repackaging of lenses in the packing solution. The lenses were packaging in borate buffer packing solution with 50 ppm methyl cellulose and autoclaved at 121° C. for 19 minutes. ALA-EE was quantified by gas chromatography.

[5] = test system: corneal epithelium tissue construct (HCE construct, SkinEthic); settings: human, 8 h
Description: (§1) The model uses a corneal epithelium tissue construct (e.g., HCE construct manufactured by SkinEthic).
(§2) The esterified anti-inflammatory lipid mediator dose-responses were then evaluated in the construct, whereby 30 microliters of the rewetting drop was topically applied to the tissue for 8 or 24 hours, and cell viability was then quantified along with a subset of selected potential biomarkers within the tissue culture media.

[6] = test system: corneal epithelium tissue construct (HCE construct, SkinEthic); test: Corneal epithelial tissue model, cell viability (MTT), 8 hour exposure; settings: 0.001 and 0.01%
Description: as §1, §2

| Molecule | effect on transepithelial permeability / fluorescein leakage [1] | uptake of ALA by the contact lenses ([2]; 0.05% ALA solution in IPA) [micrograms per lens] | uptake of ALA by the contact lenses ([2]; 0.5% ALA solution in IPA) [micrograms per lens] | response on the eye (acute ocular discomfort) [3] | ALA-EE uptake ([2]; 0.05% ALA-EE solution in IPA) [micrograms per lens] | ALA-EE uptake ([2]; 0.5% ALA-EE solution in IPA) [micrograms per lens] | hydrolysis of ester to free acid form ([2]; senofilcon lens loading from IPA) | hydrolysis of the ester to the acid ([4]; narafilcon B lens, PG loading, autoclaved 121° C.) | ALA-EE uptake ([4]; 0.05% ALA-EE solution) [micrograms per lens] | ALA-EE uptake ([4]; 0.5% ALA-EE solution) [micrograms per lens] | impact on the in vitro endpoint, times less than linolenic acid (ALA) [5] [times] | cytotoxicity in the construct [6] |
| --- | --- | --- | --- | --- | --- | --- | --- | --- | --- | --- | --- | --- |
| CC/C=C\C/C=C\C/C=C\CCCCCCCC(=O)O [ALA, alpha-linolenic acid, reference compound] | significant increase in fluorescein leakage | 23 | 300 | – | – | – | – | – | – | – | – | – |
| CC/C=C\C/C=C\C/C=C\CCCCCCCC(=O)OCC [ALA-EE, ethyl linolenate] | behaved similarly to the vehicle | – | – | lack of acute ocular discomfort | 54 | 611 | did not hydrolyze to the free acid form | no detectable hydrolysis | 91 | 721 | 10 | – |
| benzalkonium chloride [BAK] | – | – | – | – | – | – | – | – | – | – | – | non-cytotoxic |
